Experimental data published in ChEMBL document CHEMBL4706689, “Synthesis and antifungal activity of polycyclic pyridone derivatives with anti-hyphal and biofilm formation activity against Candida albicans” (2021).
The source made the active and inactive calls. The calls are words filed in the database; no cut-off is given here.

How the values were obtained:
Candida albicans [1] = assay: Inhibition of hyphal formation in Candida albicans SC5314 cultured in spider medium assessed as reduction in hyphal length at 25 ug/ml relative to control; assay type: functional
Candida albicans [2] = assay: Inhibition of biofilm formation in Candida albicans SC5314 at 6.25 to 25 ug/ml by XTT assay; assay type: functional, organism-based; conditions: dose 6.25-25 µg/ml
Candida albicans [3] = assay: Inhibition of hyphal formation in Candida albicans SC5314 cultured in spider medium assessed as reduction in hyphal length; assay type: functional, organism-based; conditions: dose 3.12-25 µg/ml
Candida albicans [4] = assay: Inhibition of biofilm formation in Candida albicans SC5314 at 25 ug/ml by XTT assay relative to control; assay type: functional
Candida albicans [5] = assay: Inhibition of biofilm formation in Candida albicans SC5314 by XTT assay; assay type: functional, organism-based

Compound	inhibition at 25 µg/mL (Candida albicans [1]) [%]	inhibition (Candida albicans [2])	inhibition (Candida albicans [3])	inhibition at 25 µg/mL (Candida albicans [4]) [%]	inhibition (Candida albicans [5])
C[C@H]1Oc2c(-c3cccs3)c(Cl)[nH]c(=O)c2[C@H]2c3ccccc3OC[C@H]21	30				
CC(C)=CC[C@]1(C)Oc2c(-c3ccc(C)cc3)c(Cl)[nH]c(=O)c2[C@H]2c3ccccc3OC[C@H]21	30				
C[C@H]1CC[C@H]2[C@H](C1)c1c(c(-c3cccs3)c(Cl)[nH]c1=O)OC2(C)C	30				
CC(C)=CCC1(C)C=Cc2c(c(-c3ccc(C)cc3)c(Cl)[nH]c2=O)O1 (stereo not drawn)	30				
CC1(C)C=Cc2c(c(-c3cccs3)c(Cl)[nH]c2=O)O1	> 50	Active	Dose-dependent effect		
CC1(C)C=Cc2c(c(-c3ccccc3)c[nH]c2=O)O1	> 50		Dose-dependent effect	18.7	
Cc1ccc(-c2c[nH]c(=O)c3c2OC(C)(C)C=C3)cc1	> 50		Dose-dependent effect	17.9	
CC1(C)C=Cc2c(c(-c3ccccc3)c(Cl)[nH]c2=O)O1	30				
Cc1ccc(-c2c(Cl)[nH]c(=O)c3c2O[C@H](C)[C@@H]2COc4ccccc4[C@H]32)cc1	> 50		Dose-dependent effect		inactive
Cc1ccc(-c2c(Cl)[nH]c(=O)c3c2OC(C)(C)C=C3)cc1	30				
